One block for each compound: values may come before it.
What was measured:
[1] = target: ATP-binding cassette sub-family C member 3 (Homo sapiens, UniProt O15438); experiment: Inhibition of human MRP3 overexpressed in Sf9 insect cell membrane vesicles assessed as uptake of [3H]-estradiol-17beta-D-glucuronide in presence of ATP and GSH measured after 10 mins by membrane vesicle transport assay; type: ADME, cell-based
[2] = target: ATP-binding cassette sub-family C member 2 (Homo sapiens, UniProt Q92887); experiment: Inhibition of human MRP2 overexpressed in Sf9 cell membrane vesicles assessed as uptake of [3H]-estradiol-17beta-D-glucuronide in presence of ATP and GSH measured after 20 mins by membrane vesicle transport assay
[3] = AUC in human at 250 to 500 mg, po QD after 24 hrs; type: ADME, organism-based; conditions: in vivo
[4] = Drug concentration at steady state in human at 100 mg, po QD after 24 hrs; type: ADME, organism-based; conditions: in vivo, read-out: Css
Bile salt export pump = Bile salt export pump (Homo sapiens, UniProt O95342); experiment: Inhibition of human BSEP overexpressed in Sf9 cell membrane vesicles assessed as uptake of [3H]-taurocholate in presence of ATP measured after 15 to 20 mins by membrane vesicle transport assay; type: ADME, cell-based
[5] = target: T1, ATP-binding cassette sub-family C member 4 (Homo sapiens, UniProt O15439); experiment: Inhibition of human MRP4 overexpressed in Sf9 cell membrane vesicles assessed as uptake of [3H]-estradiol-17beta-D-glucuronide in presence of ATP and GSH measured after 20 mins by membrane vesicle transport assay; type: ADME, cell-based
T1 sequence (O15439 whole entry): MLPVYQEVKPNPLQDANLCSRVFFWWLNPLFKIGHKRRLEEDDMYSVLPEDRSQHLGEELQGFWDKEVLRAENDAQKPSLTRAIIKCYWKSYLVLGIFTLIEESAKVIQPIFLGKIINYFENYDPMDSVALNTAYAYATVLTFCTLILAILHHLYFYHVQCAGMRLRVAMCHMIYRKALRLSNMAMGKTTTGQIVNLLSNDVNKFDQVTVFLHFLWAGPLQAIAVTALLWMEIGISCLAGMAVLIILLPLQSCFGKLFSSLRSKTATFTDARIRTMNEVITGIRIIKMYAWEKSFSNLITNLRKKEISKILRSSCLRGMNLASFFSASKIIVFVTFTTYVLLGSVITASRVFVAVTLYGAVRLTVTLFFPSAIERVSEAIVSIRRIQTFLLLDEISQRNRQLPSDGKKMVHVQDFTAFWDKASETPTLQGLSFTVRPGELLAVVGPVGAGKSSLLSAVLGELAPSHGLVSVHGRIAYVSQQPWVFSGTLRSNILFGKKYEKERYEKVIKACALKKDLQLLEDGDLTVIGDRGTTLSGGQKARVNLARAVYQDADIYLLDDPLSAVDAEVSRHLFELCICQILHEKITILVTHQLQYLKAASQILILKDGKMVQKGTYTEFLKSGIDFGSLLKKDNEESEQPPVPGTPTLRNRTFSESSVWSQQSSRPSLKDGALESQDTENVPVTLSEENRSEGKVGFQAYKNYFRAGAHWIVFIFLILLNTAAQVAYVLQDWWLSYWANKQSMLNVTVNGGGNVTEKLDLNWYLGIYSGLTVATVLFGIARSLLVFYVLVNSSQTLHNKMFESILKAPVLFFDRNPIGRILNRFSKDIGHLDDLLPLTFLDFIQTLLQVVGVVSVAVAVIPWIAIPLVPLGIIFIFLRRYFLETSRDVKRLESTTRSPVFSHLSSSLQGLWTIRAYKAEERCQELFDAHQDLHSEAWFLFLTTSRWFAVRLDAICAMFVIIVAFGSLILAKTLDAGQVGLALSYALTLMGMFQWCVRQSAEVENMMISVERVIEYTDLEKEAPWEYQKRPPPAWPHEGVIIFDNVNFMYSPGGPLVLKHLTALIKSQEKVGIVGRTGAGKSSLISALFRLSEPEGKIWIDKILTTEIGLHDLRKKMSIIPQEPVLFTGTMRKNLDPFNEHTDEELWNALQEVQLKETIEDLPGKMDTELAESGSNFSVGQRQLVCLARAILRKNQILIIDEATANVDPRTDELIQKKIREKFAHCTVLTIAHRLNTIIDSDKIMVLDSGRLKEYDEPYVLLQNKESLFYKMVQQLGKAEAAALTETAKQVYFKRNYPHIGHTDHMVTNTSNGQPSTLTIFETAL

Homo sapiens [6] = experiment: Ratio of drug concentration at steady state in human at 100 mg, po after 24 hrs to IC50 for human BSEP overexpressed in Sf9 insect cells; type: ADME, organism-based; conditions: in vivo
[7] = AUC in human at 100 mg, po QD after 24 hrs; type: ADME, organism-based; design: time < 24 hr, dose 100 mg, route oral; conditions: in vivo
Homo sapiens [8] = experiment: Ratio of drug concentration at steady state in patient with possible depletion of intravascular volume at 25 mg, po QD after 24 hrs to IC50 for human MRP4 overexpressed in Sf9 insect cells; type: ADME, organism-based; conditions: in vivo
Homo sapiens [9] = experiment: Ratio of drug concentration at steady state in human at 50 to 100 mg, po after 24 hrs to IC50 for human BSEP overexpressed in Sf9 insect cells; type: ADME, organism-based; conditions: in vivo
Homo sapiens [10] = experiment: Ratio of drug concentration at steady state in patient with possible depletion of intravascular volume at 25 mg, po QD after 24 hrs to IC50 for human BSEP overexpressed in Sf9 insect cells; type: ADME, organism-based; conditions: in vivo
[11] = AUC in patient with possible depletion of intravascular volume at 25 mg, po QD after 24 hrs; type: ADME, organism-based; design: time < 24 hr, dose 25 mg, route oral; conditions: human, in vivo
Homo sapiens [12] = experiment: Ratio of drug concentration at steady state in human at 50 to 100 mg, po after 24 hrs to IC50 for human MRP4 overexpressed in Sf9 insect cells; type: ADME, organism-based; conditions: in vivo
[13] = Drug concentration at steady state in human at 50 to 100 mg, po QD after 24 hrs; type: ADME, organism-based; conditions: in vivo, read-out: Css
[14] = AUC in human at 50 to 100 mg, po QD after 24 hrs; type: ADME, organism-based; conditions: in vivo
[15] = Drug concentration at steady state in patient with possible depletion of intravascular volume at 25 mg, po QD after 24 hrs; type: ADME, organism-based; conditions: human, in vivo, read-out: Css
Homo sapiens [16] = experiment: Ratio of drug concentration at steady state in human at 0.25 to 20 mg, po after 24 hrs to IC50 for human MRP4 overexpressed in Sf9 insect cells; type: ADME, organism-based; conditions: in vivo
[17] = Drug concentration at steady state in human at 0.25 to 20 mg, po QD after 24 hrs; type: ADME, organism-based; conditions: in vivo, read-out: Css
Homo sapiens [18] = experiment: Ratio of drug concentration at steady state in human at 0.25 to 20 mg, po after 24 hrs to IC50 for human MRP3 overexpressed in Sf9 insect cells; type: ADME, organism-based; conditions: in vivo
[19] = AUC in human at 0.25 to 20 mg, po QD after 24 hrs; type: ADME, organism-based; conditions: in vivo
Homo sapiens [20] = experiment: Ratio of drug concentration at steady state in human at 0.25 to 20 mg, po after 24 hrs to IC50 for human MRP2 overexpressed in Sf9 insect cells; type: ADME, organism-based; conditions: in vivo
Homo sapiens [21] = experiment: Ratio of drug concentration at steady state in human at 0.25 to 20 mg, po after 24 hrs to IC50 for human BSEP overexpressed in Sf9 insect cells; type: ADME, organism-based; conditions: in vivo
[22] = Ratio of drug concentration at steady state in human at 100 to 400 mg, po BID after 12 hrs to IC50 for human BSEP overexpressed in Sf9 insect cells; type: ADME, organism-based; conditions: in vivo

ATP-binding cassette sub-family C member 3, sequence (O15438 whole entry): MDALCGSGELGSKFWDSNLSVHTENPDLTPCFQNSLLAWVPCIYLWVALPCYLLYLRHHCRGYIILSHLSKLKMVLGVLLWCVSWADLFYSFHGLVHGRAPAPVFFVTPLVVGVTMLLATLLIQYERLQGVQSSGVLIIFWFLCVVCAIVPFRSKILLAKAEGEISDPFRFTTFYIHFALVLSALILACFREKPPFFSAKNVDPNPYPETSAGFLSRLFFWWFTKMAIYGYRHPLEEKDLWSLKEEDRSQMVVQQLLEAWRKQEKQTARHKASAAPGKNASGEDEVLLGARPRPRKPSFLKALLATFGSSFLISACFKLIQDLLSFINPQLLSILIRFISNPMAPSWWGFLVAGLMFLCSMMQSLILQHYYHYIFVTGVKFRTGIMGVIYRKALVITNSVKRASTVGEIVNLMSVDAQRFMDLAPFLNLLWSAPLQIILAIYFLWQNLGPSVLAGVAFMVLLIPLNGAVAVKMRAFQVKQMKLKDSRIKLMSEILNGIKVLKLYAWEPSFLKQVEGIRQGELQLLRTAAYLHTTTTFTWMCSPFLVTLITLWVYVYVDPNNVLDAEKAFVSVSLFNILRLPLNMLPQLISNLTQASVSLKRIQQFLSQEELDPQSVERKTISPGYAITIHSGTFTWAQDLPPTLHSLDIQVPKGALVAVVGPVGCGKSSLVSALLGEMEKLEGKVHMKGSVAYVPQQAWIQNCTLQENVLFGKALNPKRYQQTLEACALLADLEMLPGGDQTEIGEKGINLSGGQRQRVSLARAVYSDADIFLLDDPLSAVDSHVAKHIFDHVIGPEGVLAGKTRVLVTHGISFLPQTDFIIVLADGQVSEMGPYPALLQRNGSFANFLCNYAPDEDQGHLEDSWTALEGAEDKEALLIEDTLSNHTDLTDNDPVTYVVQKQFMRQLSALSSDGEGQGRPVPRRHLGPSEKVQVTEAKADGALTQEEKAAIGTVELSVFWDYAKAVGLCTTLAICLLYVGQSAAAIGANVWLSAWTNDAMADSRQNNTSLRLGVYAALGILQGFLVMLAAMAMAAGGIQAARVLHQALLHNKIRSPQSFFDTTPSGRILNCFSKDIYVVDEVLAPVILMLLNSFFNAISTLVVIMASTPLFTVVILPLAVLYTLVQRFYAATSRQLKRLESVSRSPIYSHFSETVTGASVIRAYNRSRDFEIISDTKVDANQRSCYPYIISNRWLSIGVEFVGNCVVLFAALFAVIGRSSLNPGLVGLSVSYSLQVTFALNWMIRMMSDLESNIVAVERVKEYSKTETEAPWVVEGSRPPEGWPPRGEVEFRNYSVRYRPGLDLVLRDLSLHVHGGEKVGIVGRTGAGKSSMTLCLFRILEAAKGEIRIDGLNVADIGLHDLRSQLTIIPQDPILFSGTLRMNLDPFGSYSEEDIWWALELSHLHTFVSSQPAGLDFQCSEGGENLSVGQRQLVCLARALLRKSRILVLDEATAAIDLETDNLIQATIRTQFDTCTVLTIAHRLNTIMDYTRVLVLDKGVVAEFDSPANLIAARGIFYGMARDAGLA
Bile salt export pump, sequence (O95342 whole entry): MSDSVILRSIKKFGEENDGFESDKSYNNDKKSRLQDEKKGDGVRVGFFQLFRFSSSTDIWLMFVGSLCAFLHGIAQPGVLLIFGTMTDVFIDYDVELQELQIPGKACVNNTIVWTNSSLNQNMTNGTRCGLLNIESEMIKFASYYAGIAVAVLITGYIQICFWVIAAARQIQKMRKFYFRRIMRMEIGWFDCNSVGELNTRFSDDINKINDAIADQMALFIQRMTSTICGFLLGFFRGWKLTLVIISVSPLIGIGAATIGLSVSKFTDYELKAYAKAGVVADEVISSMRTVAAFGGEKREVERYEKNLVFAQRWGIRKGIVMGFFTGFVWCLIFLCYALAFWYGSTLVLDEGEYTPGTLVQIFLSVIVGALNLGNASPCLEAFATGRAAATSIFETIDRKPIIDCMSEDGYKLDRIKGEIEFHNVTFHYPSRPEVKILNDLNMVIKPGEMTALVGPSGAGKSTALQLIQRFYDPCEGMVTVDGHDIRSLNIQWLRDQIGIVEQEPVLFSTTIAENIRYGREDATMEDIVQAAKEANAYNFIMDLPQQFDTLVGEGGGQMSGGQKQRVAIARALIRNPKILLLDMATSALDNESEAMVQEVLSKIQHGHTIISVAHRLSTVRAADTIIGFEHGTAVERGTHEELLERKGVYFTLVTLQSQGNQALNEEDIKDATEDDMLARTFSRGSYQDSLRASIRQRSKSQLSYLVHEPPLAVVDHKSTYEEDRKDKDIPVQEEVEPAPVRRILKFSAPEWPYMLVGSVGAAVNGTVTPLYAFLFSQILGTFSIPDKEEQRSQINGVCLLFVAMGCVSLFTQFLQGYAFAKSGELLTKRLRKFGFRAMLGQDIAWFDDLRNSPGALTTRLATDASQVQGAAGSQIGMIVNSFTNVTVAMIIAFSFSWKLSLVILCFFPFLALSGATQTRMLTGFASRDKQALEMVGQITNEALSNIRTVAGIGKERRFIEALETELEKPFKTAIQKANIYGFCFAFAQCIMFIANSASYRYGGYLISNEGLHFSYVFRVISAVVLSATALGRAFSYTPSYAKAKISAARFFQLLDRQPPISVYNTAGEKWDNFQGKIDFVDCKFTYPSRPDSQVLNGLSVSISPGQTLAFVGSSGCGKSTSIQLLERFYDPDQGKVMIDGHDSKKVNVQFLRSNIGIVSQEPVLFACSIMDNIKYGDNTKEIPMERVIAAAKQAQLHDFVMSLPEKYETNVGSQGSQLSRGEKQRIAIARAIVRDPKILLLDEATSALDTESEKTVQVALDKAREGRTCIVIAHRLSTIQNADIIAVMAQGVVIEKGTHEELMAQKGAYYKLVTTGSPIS
ATP-binding cassette sub-family C member 2, sequence (Q92887 whole entry): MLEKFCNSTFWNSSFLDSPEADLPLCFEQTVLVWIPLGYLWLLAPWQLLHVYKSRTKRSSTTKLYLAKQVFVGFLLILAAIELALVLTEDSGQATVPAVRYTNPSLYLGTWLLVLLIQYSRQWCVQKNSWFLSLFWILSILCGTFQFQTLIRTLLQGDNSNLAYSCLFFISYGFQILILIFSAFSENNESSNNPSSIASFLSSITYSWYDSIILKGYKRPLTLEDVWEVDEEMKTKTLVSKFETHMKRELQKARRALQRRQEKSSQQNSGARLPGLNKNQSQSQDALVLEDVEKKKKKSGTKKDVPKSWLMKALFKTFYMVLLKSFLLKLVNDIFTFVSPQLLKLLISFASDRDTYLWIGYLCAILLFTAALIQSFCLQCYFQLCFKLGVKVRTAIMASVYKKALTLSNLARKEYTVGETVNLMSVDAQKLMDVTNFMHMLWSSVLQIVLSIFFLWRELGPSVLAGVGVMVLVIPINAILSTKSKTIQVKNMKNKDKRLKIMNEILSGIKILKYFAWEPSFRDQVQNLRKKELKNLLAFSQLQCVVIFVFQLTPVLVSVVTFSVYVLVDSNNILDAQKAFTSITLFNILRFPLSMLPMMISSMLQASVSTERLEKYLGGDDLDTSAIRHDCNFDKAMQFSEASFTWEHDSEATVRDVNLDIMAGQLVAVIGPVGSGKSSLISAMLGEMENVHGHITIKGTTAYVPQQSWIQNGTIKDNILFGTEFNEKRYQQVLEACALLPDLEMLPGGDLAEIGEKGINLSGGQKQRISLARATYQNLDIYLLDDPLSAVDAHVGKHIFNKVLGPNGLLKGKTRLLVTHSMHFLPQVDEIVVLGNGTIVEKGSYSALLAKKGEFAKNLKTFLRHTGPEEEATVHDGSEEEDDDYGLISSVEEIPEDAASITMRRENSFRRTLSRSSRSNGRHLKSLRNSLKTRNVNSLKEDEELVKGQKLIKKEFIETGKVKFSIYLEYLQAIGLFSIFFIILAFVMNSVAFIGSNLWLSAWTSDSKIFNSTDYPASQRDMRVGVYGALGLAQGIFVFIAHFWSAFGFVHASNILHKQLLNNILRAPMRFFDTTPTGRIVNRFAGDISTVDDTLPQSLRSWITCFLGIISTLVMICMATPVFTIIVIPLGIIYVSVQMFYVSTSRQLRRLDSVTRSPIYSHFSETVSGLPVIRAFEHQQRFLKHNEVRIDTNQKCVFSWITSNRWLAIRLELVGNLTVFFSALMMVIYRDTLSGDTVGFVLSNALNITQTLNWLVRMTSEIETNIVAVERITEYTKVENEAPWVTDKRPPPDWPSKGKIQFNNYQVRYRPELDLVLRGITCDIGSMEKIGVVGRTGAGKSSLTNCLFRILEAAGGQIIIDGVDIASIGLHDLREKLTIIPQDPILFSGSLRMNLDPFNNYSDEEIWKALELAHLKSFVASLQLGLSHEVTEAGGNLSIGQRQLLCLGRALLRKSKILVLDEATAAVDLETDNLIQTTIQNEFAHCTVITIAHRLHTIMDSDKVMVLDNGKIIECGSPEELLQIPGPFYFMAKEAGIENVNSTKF

IC50 [1]: > 133 µM
IC50 [2]: > 133 µM
AUC at 24 h [3]: 5380 nM·h
SMILES: COc1cc2ncnc(Nc3ccc(F)c(Cl)c3)c2cc1OCCCN1CCOCC1 [GEFITINIB]

concentration at 24 h [4]: 0.735 µM
IC50 [1]: > 133 µM
IC50 [5]: > 133 µM
IC50 [2]: > 133 µM
AUC at 24 h [7]: 17600 nM·h
SMILES: COCC(=O)O[C@]1(CCN(C)CCCc2nc3ccccc3[nH]2)CCc2cc(F)ccc2[C@@H]1C(C)C.Cl
IC50 (Bile salt export pump): 43.8 µM
Ratio (Homo sapiens [6]): 0.017

Ratio (Homo sapiens [8]): 0.003
IC50 [1]: > 133 µM
IC50 [5]: 34.1 µM
AUC at 24 h [11]: 2420 nM·h
Ratio (Homo sapiens [12]): 0.003
concentration at 24 h [13]: 0.101 µM
AUC at 24 h [14]: 2420 nM·h
concentration at 24 h [15]: 0.101 µM
SMILES: CCCCc1nc(Cl)c(CO)n1Cc1ccc(-c2ccccc2-c2nnn[n-]2)cc1.[K+] [LOSARTAN POTASSIUM]
IC50 (Bile salt export pump): 8.53 µM
Ratio (Homo sapiens [9]): 0.012
Ratio (Homo sapiens [10]): 0.012

IC50 [1]: 84 µM
Ratio (Homo sapiens [16]): 0
IC50 [5]: 95 µM
concentration at 24 h [17]: 0.023 µM
IC50 [2]: 11.3 µM
Ratio (Homo sapiens [18]): 0
AUC at 24 h [19]: 561 nM·h
Ratio (Homo sapiens [20]): 0.002
SMILES: CO[C@H]1C[C@@H]2CC[C@@H](C)[C@@](O)(O2)C(=O)C(=O)N2CCCC[C@H]2C(=O)O[C@H]([C@H](C)C[C@@H]2CC[C@@H](OCCO)[C@H](OC)C2)CC(=O)[C@H](C)/C=C(\C)[C@@H](O)[C@@H](OC)C(=O)[C@H](C)C[C@H](C)/C=C/C=C/C=C/1C [EVEROLIMUS]
IC50 (Bile salt export pump): 2 µM
Ratio (Homo sapiens [21]): 0.012

IC50 [1]: > 133 µM
IC50 [5]: > 133 µM
IC50 [2]: > 133 µM
SMILES: COCC1=C(C(=O)OC(C)OC(=O)OC(C)C)N2C(=O)[C@@H](NC(=O)/C(=N\OC)c3csc(N)n3)[C@H]2SC1 (stereo partly specified) [CEFPODOXIME PROXETIL]
IC50 (Bile salt export pump): 81.7 µM
Ratio [22]: 0.022

Reference: ChEMBL document CHEMBL4028801, “A multifactorial approach to hepatobiliary transporter assessment enables improved therapeutic compound development” (Toxicol Sci, 2013)
